Assay results as given in patent publication US11053204B2, “Pyrimidinyloxy benzene derivatives as herbicides” (FMC Corporation, priority 2015, dated 2021).

What was measured:
Type in all cases: in vivo
[1] = tested on: ragweed (common ragweed, Ambrosia elatior); assay: Test A preemergence, visual injury rating; settings: Ambrosia artemisiifolia, pre-emergence, 240 h, 0 to 100 scale (0 no effect, 100 complete control), read-out: Ragweed plant response rating
Method in brief: (§1)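 Injury scores run from 0, no effect, to 100, complete control, judged by eye against untreated plants roughly 10 days after treatment. Chemicals carried a surfactant in a non-phytotoxic solvent and went onto loam–sand soil preemergence or onto one- to two-leaf seedlings postemergence.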

[2] = tested on: Italian ryegrass (Lolium multiflorum); assay: Test A preemergence, visual injury rating; settings: Lolium multiflorum, pre-emergence, 240 h, 0 to 100 scale (0 no effect, 100 complete control), read-out: Ryegrass, Italian plant response rating
Method in brief: as §1

[3] = tested on: barnyardgrass (Echinochloa crus-galli); assay: Test A preemergence, visual injury rating; settings: Echinochloa crus-galli, pre-emergence, 240 h, 0 to 100 scale (0 no effect, 100 complete control), read-out: Barnyardgrass plant response rating
Method in brief: as §1

kochia (Kochia scoparia) = assay: Test A preemergence, visual injury rating; settings: Bassia scoparia, pre-emergence, 240 h, 0 to 100 scale (0 no effect, 100 complete control), read-out: Kochia plant response rating
Method in brief: as §1

[4] = tested on: pigweed (Amaranthus retroflexus); assay: Test A preemergence, visual injury rating; settings: Amaranthus retroflexus, pre-emergence, 240 h, 0 to 100 scale (0 no effect, 100 complete control), read-out: Pigweed plant response rating
Method in brief: as §1

[5] = tested on: giant foxtail (Setaria faberii); assay: Test A preemergence, visual injury rating; settings: Setaria faberi, pre-emergence, 240 h, 0 to 100 scale (0 no effect, 100 complete control), read-out: Foxtail, Giant plant response rating
Method in brief: as §1

[6] = tested on: ragweed (common ragweed, Ambrosia elatior); assay: Test C preemergence, plant response rating; settings: Ambrosia artemisiifolia, pre-emergence, Preemergence
From the text: (§2) Seeds of plant species selected from blackgrass (Alopecurus myosuroides), ryegrass, Italian (Italian ryegrass, Lolium multiflorum), wheat (winter wheat, Triticum aestivum), galium (catchweed bedstraw, Galium aparine), corn (Zea mays), crabgrass, large (large crabgrass, Digitaria sanguinalis), foxtail, giant (giant foxtail, Setaria faberii), johnsongrass (Sorghum halepense), lambsquarters (Chenopodium album), morningglory (Ipomoea coccinea), nutsedge, yellow (yellow nutsedge, Cyperus esculentus), pigweed (Amaranthus retroflexus), ragweed (common ragweed, Ambrosia elatior), soybean (Glycine max), barnyardgrass (Echinochloa crus-galli), oilseed rape (Brassica napus), pigweed, palmer (palmer pigweed, Amaranthus palmeri), waterhemp (common waterhemp, Amaranthus rudis), velvetleaf (Abutilon theophrasti), kochia (Kochia scoparia), surinam grass (Brachiaria decumbens), nightshade (eastern black nightshade, Solanum ptycanthum), wild poinsettia (Euphorbia heterophylla), windgrass (Apera spica-venti), and oat, wild (wild oat Avena fatua), were planted into a blend of loam soil and sand or a silt loam soil and treated preemergence with test chemicals formulated in a non-phytotoxic solvent mixture which included a surfactant.
(§3) At the same time, plants selected from these crop and weed species and also chickweed (common chickweed, Stellaria media), buckwheat, wild (wild buckwheat, Polygonum convolvulus), wild mustard (Sinapis arvensis), field poppy (Papaver rhoeas), field violet (Viola arvensis), geranium, cutleaf (cutleaf geranium, Geranium dissectum), Canada thistle (Cirsium arvense), and speedwell (bird's-eye speedwell, Veronica persica), were planted in pots containing Sunshine Redi-Earth® planting medium comprising spaghnum peat moss, vermiculite, starter nutrients and dolomitic limestone and treated with postemergence applications of test chemicals formulated in the same manner. Plants ranged in height from 2 to 18 cm (1- to 4-leaf stage) for postemergence treatments. Treated plants and controls were maintained in a greenhouse for 13 to 15 d, after which time all species were compared to controls and visually evaluated. Plant response ratings, summarized in Table C, are based on a scale of 0 to 100 where 0 is no effect and 100 is complete control. A dash (-) response means no test result.

[7] = tested on: foxtail, giant (giant foxtail, Setaria faberii); assay: Test C preemergence, plant response rating; settings: Setaria faberi, pre-emergence, Preemergence
From the text: as §2, §3

corn (Zea mays) = assay: Test C preemergence, plant response rating; settings: Zea mays, pre-emergence, Preemergence
From the text: as §2, §3

[8] = tested on: ryegrass, Italian (Italian ryegrass, Lolium multiflorum); assay: Test C preemergence, plant response rating; settings: Lolium multiflorum, pre-emergence, Preemergence
From the text: as §2, §3

[9] = tested on: crabgrass, large (large crabgrass, Digitaria sanguinalis); assay: Test C preemergence, plant response rating; settings: Digitaria sanguinalis, pre-emergence, Preemergence
From the text: as §2, §3

[10] = tested on: oilseed rape (Brassica napus); assay: Test C preemergence, plant response rating; settings: Brassica napus, pre-emergence, Preemergence
From the text: as §2, §3

soybean (Glycine max) = assay: Test C preemergence, plant response rating; settings: Glycine max, pre-emergence, Preemergence
From the text: as §2, §3

[11] = tested on: blackgrass (Alopecurus myosuroides); assay: Test C preemergence, plant response rating; settings: Alopecurus myosuroides, pre-emergence, Preemergence
From the text: as §2, §3

O=C(OCCC(F)(F)F)c1c(Cl)cccc1Oc1ncc(Cl)cn1 [Compound 15, 3,3,3-trifluoropropyl 2-chloro-6-[(5-chloro-2-pyrimidinyl)oxy]benzoate]
0%: pest or weed control at 125 g/ha ([1]; 125 g ai/ha) | Corn plant response rating (crop injury, 0 = no effect, 100 = complete kill) at 16 g/ha (corn (Zea mays); 16 g ai/ha, scale 0 to 100) | Corn plant response rating (crop injury, 0 = no effect, 100 = complete kill) at 31 g/ha (corn (Zea mays); 31 g ai/ha, scale 0 to 100) | pest or weed control at 16 g/ha ([8]; 16 g ai/ha, scale 0 to 100) | plant injury at 16 g/ha (soybean (Glycine max); 16 g ai/ha, scale 0 to 100) | pest or weed control at 16 g/ha ([11]; 16 g ai/ha, scale 0 to 100) | pest or weed control at 31 g/ha ([11]; 31 g ai/ha, scale 0 to 100)
40%: pest or weed control at 125 g/ha ([2]; 125 g ai/ha) | plant injury at 62 g/ha (soybean (Glycine max); 62 g ai/ha, scale 0 to 100)
25%: Corn plant response rating (crop injury, 0 = no effect, 100 = complete kill) at 125 g/ha (corn (Zea mays); 125 g ai/ha, scale of 0 to 100)
90%: pest or weed control at 500 g/ha ([2]; 500 g ai/ha)
100%: pest or weed control at 125 g/ha ([3]; 125 g ai/ha) | pest or weed control at 500 g/ha ([3]; 500 g ai/ha) | pest or weed control at 125 g/ha (kochia (Kochia scoparia); 125 g ai/ha) | pest or weed control at 500 g/ha (kochia (Kochia scoparia); 500 g ai/ha) | pest or weed control at 125 g/ha ([4]; 125 g ai/ha) | pest or weed control at 500 g/ha ([4]; 500 g ai/ha) | pest or weed control at 125 g/ha ([5]; 125 g ai/ha) | pest or weed control at 500 g/ha ([5]; 500 g ai/ha) | pest or weed control at 62 g/ha ([7]; 62 g ai/ha, scale of 0 to 100) | pest or weed control at 125 g/ha ([7]; 125 g ai/ha, scale of 0 to 100) | pest or weed control at 16 g/ha ([7]; 16 g ai/ha, scale 0 to 100) | pest or weed control at 31 g/ha ([7]; 31 g ai/ha, scale 0 to 100) | pest or weed control at 62 g/ha ([9]; 62 g ai/ha, scale of 0 to 100) | pest or weed control at 125 g/ha ([9]; 125 g ai/ha, scale of 0 to 100) | pest or weed control at 31 g/ha ([9]; 31 g ai/ha, scale 0 to 100) | plant injury at 125 g/ha ([10]; 125 g ai/ha, scale of 0 to 100) | plant injury at 31 g/ha ([10]; 31 g ai/ha, scale 0 to 100) | plant injury at 62 g/ha ([10]; 62 g ai/ha, scale 0 to 100)
30%: pest or weed control at 62 g/ha ([6]; 62 g ai/ha, scale 0 to 100) | plant injury at 16 g/ha ([10]; 16 g ai/ha, scale 0 to 100)
15%: pest or weed control at 62 g/ha ([8]; 62 g ai/ha, scale 0 to 100)
10%: pest or weed control at 500 g/ha ([1]; 500 g ai/ha) | pest or weed control at 16 g/ha ([6]; 16 g ai/ha, scale 0 to 100) | pest or weed control at 31 g/ha ([6]; 31 g ai/ha, scale 0 to 100) | Corn plant response rating (crop injury, 0 = no effect, 100 = complete kill) at 62 g/ha (corn (Zea mays); 62 g ai/ha, scale of 0 to 100) | plant injury at 31 g/ha (soybean (Glycine max); 31 g ai/ha, scale 0 to 100)
95%: pest or weed control at 16 g/ha ([9]; 16 g ai/ha, scale 0 to 100)
5%: pest or weed control at 31 g/ha ([8]; 31 g ai/ha, scale 0 to 100)
20%: pest or weed control at 125 g/ha ([6]; 125 g ai/ha, scale of 0 to 100)
50%: pest or weed control at 125 g/ha ([8]; 125 g ai/ha, scale of 0 to 100) | pest or weed control at 62 g/ha ([11]; 62 g ai/ha, scale of 0 to 100)
80%: pest or weed control at 125 g/ha ([11]; 125 g ai/ha, scale of 0 to 100)
55%: plant injury at 125 g/ha (soybean (Glycine max); 125 g ai/ha, scale of 0 to 100)
